Literature values, collected in patent US7858126B2 (Trinity Laboratories Inc., priority 2006, dated 2010).

What was measured:
[1] = system: ornithine decarboxylase (ODC); conditions: mice
skin papillomas = conditions: mice, DMBA-initiated, TPA-promoted

For santalol, the “decrease of TPA-induced ODC activity” value [1] is listed as 70%, the “decrease of papilloma incidence” value (skin papillomas) is listed as 67% and the “decrease of papilloma multiplicity” value (skin papillomas) is listed as 96%.
